According to the supplement of paper PMC10307832:

Key:
Assay in all cases: relative viability (nuclei count vs DMSO), 5 days (fraction); higher = more cells survive
[1] = compound: Nc1nc2[nH]cc(CCc3ccc(C(=O)N[C@@H](CCC(=O)O)C(=O)O)cc3)c2c(=O)[nH]1 [Pemetrexed] + NC(=O)Nc1cc(-c2cccc(F)c2)sc1C(=O)N[C@H]1CCCNC1 [AZD7762] (partner 0.2 µM)
In short: (§1)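 Cells from lung cancer lines were seeded into 1536-well plates and, one day later, dosed by pin tool. Treatments were either a single drug or a fixed dose of an anchor drug with five library-drug doses (not always all listed) in √10 steps. After 5 days, nuclei were stained in a one-step fixation (final 0.05% Triton X-100, 1% formaldehyde, 1 ug/ml Hoechst) and counted on 4× images, and relative viability is the treated-to-vehicle nuclei ratio, as the median of duplicate plates.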

[2] = compound: Nc1nc2[nH]cc(CCc3ccc(C(=O)N[C@@H](CCC(=O)O)C(=O)O)cc3)c2c(=O)[nH]1 [Pemetrexed] + CS(=O)(=O)N1CCN(Cc2cc3nc(-c4cccc5[nH]ncc45)nc(N4CCOCC4)c3s2)CC1 [Pictilisib] (partner 1 µM)
In short: as §1

[3] = compound: CC[C@H](Nc1ncnc2[nH]cnc12)c1nc2cccc(F)c2c(=O)n1-c1ccccc1 [Idelalisib] + CS(=O)(=O)N1CCN(Cc2cc3nc(-c4cccc5[nH]ncc45)nc(N4CCOCC4)c3s2)CC1 [Pictilisib] (partner 1 µM)
In short: as §1

[4] = compound: CC[C@H](Nc1ncnc2[nH]cnc12)c1nc2cccc(F)c2c(=O)n1-c1ccccc1 [Idelalisib] + C[C@@H](Oc1cc(-c2cnn(C3CCNCC3)c2)cnc1N)c1c(Cl)ccc(F)c1Cl [Crizotinib] (partner 1 µM)
In short: as §1

| Cell Line | relative viability ([1]; first compound 0.002 µM) | relative viability ([1]; first compound 0.006325 µM) | relative viability ([1]; first compound 0.02 µM) | relative viability ([1]; first compound 0.06325 µM) | relative viability ([1]; first compound 0.2 µM) | relative viability ([2]; first compound 0.002 µM) | relative viability ([2]; first compound 0.006325 µM) | relative viability ([2]; first compound 0.02 µM) | relative viability ([2]; first compound 0.06325 µM) | relative viability ([2]; first compound 0.2 µM) | relative viability ([3]; first compound 0.04 µM) | relative viability ([3]; first compound 0.1265 µM) | relative viability ([3]; first compound 0.4 µM) | relative viability ([3]; first compound 1.265 µM) | relative viability ([3]; first compound 4 µM) | relative viability ([4]; first compound 0.04 µM) | relative viability ([4]; first compound 0.1265 µM) | relative viability ([4]; first compound 0.4 µM) | relative viability ([4]; first compound 1.265 µM) | relative viability ([4]; first compound 4 µM) |
| --- | --- | --- | --- | --- | --- | --- | --- | --- | --- | --- | --- | --- | --- | --- | --- | --- | --- | --- | --- | --- |
| EPLC-272H | 0.117 | 0.206 | 0.259 | 0.176 | 0.169 | 0.375 | 0.348 | 0.409 | 0.326 | 0.325 | 0.299 | 0.313 | 0.236 | 0.402 | 0.316 | 0.891 | 0.853 | 0.753 | 0.739 | 0.748 |
| NCI-H2405 | 0.781 | 0.833 | 0.843 | 0.689 | 0.629 | 0.455 | 0.436 | 0.507 | 0.474 | 0.355 | 0.492 | 0.471 | 0.387 | 0.401 | 0.447 | 0.846 | 0.814 | 0.708 | 0.76 | 0.692 |
| LCLC-97TM1 | 0.338 | 0.164 | 0.273 | 0.243 | 0.127 | 0.163 | 0.159 | 0.173 | 0.133 | 0.115 | 0.236 | 0.182 |  | 0.231 | 0.152 | 0.338 | 0.212 |  | 0.422 | 0.295 |
| NCI-H727 | 0.773 | 0.573 | 0.763 | 0.523 | 0.653 | 0.398 | 0.399 | 0.415 | 0.378 | 0.369 | 0.385 | 0.66 | 0.312 | 0.773 | 0.476 | 0.81 | 0.798 | 0.76 | 1 | 0.797 |
| LK-2 | 0.504 | 0.426 | 0.494 | 0.245 | 0.164 |  | 0.472 | 0.654 | 0.466 | 0.41 | 0.545 | 0.431 |  | 0.534 | 0.586 | 0.264 | 0.205 |  | 0.215 | 0.235 |
| PC-3 [JPC-3] | 0.448 | 0.968 | 1 | 0.808 | 0.861 | 0.625 | 0.687 | 0.821 | 0.743 | 0.663 | 0.895 | 0.749 | 0.73 | 0.737 | 0.601 | 1 | 1.04 | 0.94 | 0.98 | 0.881 |
| NCI-H596 | 1.17 | 1.1 | 1.07 | 0.472 | 0.362 | 0.399 | 0.348 | 0.436 | 0.348 | 0.344 | 0.412 | 0.402 | 0.389 | 0.405 | 0.65 | 1.02 | 0.902 | 0.886 | 0.923 | 0.948 |
| NCI-H460 | 0.589 | 0.707 | 0.657 | 0.194 | 0.0726 | 0.233 | 0.396 | 0.383 | 0.313 | 0.121 | 0.363 | 0.318 | 0.315 | 0.36 | 0.359 | 1.39 | 0.784 | 0.842 | 0.928 | 0.83 |
| NCI-H647 | 0.488 | 0.626 | 0.435 | 0.333 | 0.143 | 0.283 | 0.449 | 0.355 | 0.382 | 0.202 | 0.448 | 0.452 | 0.475 | 0.377 | 0.393 | 1.43 | 1.03 | 0.815 | 0.859 | 0.7 |
| NCI-H838 | 0.934 | 0.862 | 0.757 | 0.635 | 0.579 | 0.443 | 0.392 | 0.532 | 0.267 | 0.248 | 0.505 | 0.469 | 0.346 | 0.531 | 0.469 | 0.791 | 0.906 | 0.724 | 0.8 | 0.695 |
| PC-14 | 0.297 | 0.371 | 0.35 | 0.218 | 0.114 | 0.663 | 0.618 | 0.642 | 0.321 | 0.133 | 0.765 | 0.788 | 0.705 | 0.688 | 0.506 | 0.821 | 0.947 | 0.882 | 0.905 | 0.908 |
| NCI-H358 | 0.55 | 0.321 | 0.539 | 0.338 | 0.266 | 0.338 | 0.264 | 0.29 | 0.243 | 0.21 | 0.359 | 0.355 | 0.281 | 0.342 | 0.355 | 0.646 | 0.579 | 0.496 | 0.549 | 0.516 |
| NCI-H1915 | 0.6 | 0.638 | 0.751 | 0.599 | 0.652 | 0.786 | 0.933 | 1.13 | 0.929 | 0.957 | 1.22 | 0.952 | 0.881 | 1.08 | 0.9 | 0.989 | 0.865 | 0.848 | 0.979 | 0.895 |
| 201T | 0.606 | 0.612 | 0.725 | 0.512 | 0.374 | 0.625 | 0.698 | 0.715 | 0.632 | 0.5 | 0.686 | 0.712 | 0.59 | 0.736 | 0.661 | 1.02 | 1.07 | 0.999 | 1.08 | 1.02 |
| NCI-H1437 | 1.03 | 1.1 | 1.06 | 0.323 | 0.231 | 0.297 | 0.422 | 0.389 | 0.267 | 0.193 | 0.491 | 0.526 | 0.429 | 0.437 | 0.525 | 0.894 | 0.992 | 0.851 | 0.968 | 1.12 |
| A-427 | 0.798 | 0.708 | 0.818 | 0.755 | 0.733 | 0.646 | 0.759 | 0.804 | 0.746 | 0.642 | 0.871 | 0.789 | 0.826 | 0.743 | 0.724 | 1.05 | 1.04 | 0.789 | 1.05 | 0.755 |
